Test results reported in ChEMBL document CHEMBL1201862, “PubChem BioAssay data set” (2004).
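Cultured in 96-well plates, cells were exposed to test compound for 48 hours across five concentrations. GI50: concentration for 50% inhibition of growth.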 Active and inactive are the calls of the source. Rule as the data show it: active = GI50 up to about 1.1 µM and inactive = higher.

Tests used:
Experiment in all cases: DTP human tumour cell line panel, 48 h
SNB-19 = test system: SNB-19
HCT-15 = test system: HCT-15
SF-295 = test system: SF-295
NCI-H522 = test system: NCI-H522
UACC-62 = test system: UACC-62
HCT-116 = test system: HCT-116
BT-549 = test system: BT-549
MDA-MB-435 = test system: MDA-MB-435
K562 = test system: K562
NCI/ADR-RES = test system: NCI/ADR-RES
OVCAR-4 = test system: OVCAR-4
SW-620 = test system: SW-620
COLO 205 = test system: COLO 205
HT-29 = test system: HT-29
M14 = test system: M14
SK-OV-3 = test system: SK-OV-3
U-251 = test system: U-251
Malme-3M = test system: Malme-3M
HL-60 = test system: HL-60
A498 = test system: A498

| Compound | GI50 (SNB-19) | GI50 (HCT-15) [µM] | GI50 (SF-295) | GI50 (NCI-H522) | GI50 (UACC-62) | GI50 (HCT-116) | GI50 (BT-549) | GI50 (MDA-MB-435) | GI50 (K562) | GI50 (NCI/ADR-RES) | GI50 (OVCAR-4) | GI50 (SW-620) | GI50 (COLO 205) | GI50 (HT-29) | GI50 (M14) | GI50 (SK-OV-3) | GI50 (U-251) | GI50 (Malme-3M) | GI50 (HL-60) | GI50 (A498) |
| --- | --- | --- | --- | --- | --- | --- | --- | --- | --- | --- | --- | --- | --- | --- | --- | --- | --- | --- | --- | --- |
| COc1c(C)c(C/C=C(\C)CC/C=C(\C)CC/C=C(\C)CCC=C(C)C)c(OC)c2ccccc12 | > 100 µM (inactive) | > 100 | > 100 µM (inactive) | > 100 µM (inactive) | > 100 µM (inactive) | > 100 µM (inactive) | > 100 µM (inactive) | > 100 µM (inactive) | > 100 µM (inactive) | > 100 µM (inactive) | > 100 µM (inactive) | > 100 µM (inactive) | > 100 µM (inactive) | > 100 µM (inactive) | > 100 µM (inactive) | > 100 µM (inactive) | > 100 µM (inactive) | – | – | – |
| COc1c(O)c2c(c3cc(C(=O)N4CCc5c4c(O)c(OC)c4[nH]c(C(=O)N6CC7CC78C6=CC(=O)c6[nH]cc(C)c68)cc54)[nH]c13)CCN2C(N)=O (stereo unspecified) [CC-1065] | 0.00457 µM (active) | 0.0149 | 0.00119 µM (active) | 0.0205 µM (active) | 0.00187 µM (active) | 0.000207 µM (active) | 1.04 µM (active) | 0.182 µM (active) | 0.00309 µM (active) | – | – | 0.00105 µM (active) | 0.00168 µM (active) | – | 0.0016 µM (active) | 0.00217 µM (active) | 0.000191 µM (active) | 0.00209 µM (active) | 0.00783 µM (active) | 0.0028 µM (active) |
| CCCN1C(=O)CN(S(=O)(=O)c2ccc(Cl)cc2)C1=O | > 100 µM (inactive) | > 100 | > 100 µM (inactive) | > 100 µM (inactive) | > 100 µM (inactive) | > 100 µM (inactive) | > 100 µM (inactive) | > 100 µM (inactive) | > 100 µM (inactive) | – | > 100 µM (inactive) | > 100 µM (inactive) | > 100 µM (inactive) | > 100 µM (inactive) | > 100 µM (inactive) | > 100 µM (inactive) | > 100 µM (inactive) | > 100 µM (inactive) | > 100 µM (inactive) | > 100 µM (inactive) |
| CCOC(=O)CCCn1cc(C(=O)OC)nn1 | > 100 µM (inactive) | > 100 | 46.5 µM (inactive) | – | > 100 µM (inactive) | > 100 µM (inactive) | > 100 µM (inactive) | > 100 µM (inactive) | – | > 100 µM (inactive) | > 100 µM (inactive) | > 100 µM (inactive) | > 100 µM (inactive) | > 100 µM (inactive) | – | – | > 100 µM (inactive) | > 100 µM (inactive) | – | – |
| CCCCCc1c2nc(c(CCCCC)c3ccc([nH]3)c(CCCCC)c3nc(c(CCCCC)c4ccc1[nH]4)C=C3)C=C2 | > 100 µM (inactive) | > 100 | > 100 µM (inactive) | > 100 µM (inactive) | > 100 µM (inactive) | > 100 µM (inactive) | > 100 µM (inactive) | > 100 µM (inactive) | > 100 µM (inactive) | > 100 µM (inactive) | > 100 µM (inactive) | > 100 µM (inactive) | > 100 µM (inactive) | > 100 µM (inactive) | > 100 µM (inactive) | > 100 µM (inactive) | > 100 µM (inactive) | > 100 µM (inactive) | > 100 µM (inactive) | – |
| O=C1Cc2c([nH]c3c(Br)cccc23)-c2ccccc2N1 | 43.6 µM (inactive) | 25.1 | > 100 µM (inactive) | – | 48.8 µM (inactive) | > 10 µM (inactive) | > 100 µM (inactive) | > 100 µM (inactive) | 18.2 µM (inactive) | 40.3 µM (inactive) | – | 38.1 µM (inactive) | 27.8 µM (inactive) | 59.8 µM (inactive) | 58.5 µM (inactive) | 37.2 µM (inactive) | 57.7 µM (inactive) | > 100 µM (inactive) | 21.5 µM (inactive) | > 100 µM (inactive) |
| S=C1CC(c2ccc(Cl)cc2)Sc2ccccc2N1 (stereo unspecified) | 27.8 µM (inactive) | 90.8 | > 100 µM (inactive) | 21.6 µM (inactive) | 31.6 µM (inactive) | 19.1 µM (inactive) | 21.1 µM (inactive) | 87.1 µM (inactive) | > 10 µM (inactive) | 32.4 µM (inactive) | 28.8 µM (inactive) | – | 71.9 µM (inactive) | > 100 µM (inactive) | 24.3 µM (inactive) | 22.5 µM (inactive) | 41.3 µM (inactive) | 53.2 µM (inactive) | 30.5 µM (inactive) | – |
| CC(=O)NC1=C(NCCCl)C(=O)c2ccccc2C1=O | 58.3 µM (inactive) | 32.1 | 37.4 µM (inactive) | 20.5 µM (inactive) | 20 µM (inactive) | 20.5 µM (inactive) | 47.9 µM (inactive) | 16.6 µM (inactive) | 27.9 µM (inactive) | 29.5 µM (inactive) | 44.6 µM (inactive) | 25.4 µM (inactive) | 28.4 µM (inactive) | 26.4 µM (inactive) | 13 µM (inactive) | 59.2 µM (inactive) | 39.1 µM (inactive) | 13.9 µM (inactive) | > 10 µM (inactive) | – |
